Our source for the GI50 and TGI values is PubChem BioAssay (NCI).

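Exposure lasted 48 hours, with cells grown in 96-well plates and compounds tested at five concentrations. At the GI50, growth is halved. The concentration for full growth arrest is given as TGI.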

In general, GI50 refers to the concentration that inhibits growth by half. One may read the TGI as the concentration at which net growth stops. The low end stands for greater sensitivity of the cells, the high end for lower sensitivity of the cells.

Some test systems named below: A549 NSCLC; ACHN renal; HCT-15 colon; HL-60(TB) leukemia; IGROV1 ovarian; MALME-3M melanoma; OVCAR-5 ovarian; SW-620 colon; U251 CNS; UACC-62 melanoma.
Experiment in all cases: DTP human tumour cell line panel, 48 h

Regarding `O=C(/C=C/CN1CCCCC1)Nc1cc2c(Nc3ccc(F)c(Cl)c3F)ncnc2cc1OCCOC(F)F`, the GI50 is 585 nM in the assay with A549 NSCLC; less than 0.01 µM in the assay on ACHN renal; 633 nM with HCT-15 colon; 1400 nM in the assay with HL-60(TB) leukemia; less than 18.2 nM in the assay on IGROV1 ovarian; 1180 nM in the assay with MALME-3M melanoma. Besides, the GI50 was 406 nM with OVCAR-5 ovarian, 1490 nM in the assay with SW-620 colon, 1870 nM in the assay on U251 CNS and 1630 nM in the assay on UACC-62 melanoma. Besides, the TGI worked out at 9.92 µM in the assay with A549 NSCLC; 1.55 µM in the assay on ACHN renal; 3.86 µM with HCT-15 colon; 5.68 µM in the assay on HL-60(TB) leukemia; 0.815 µM in the assay with IGROV1 ovarian; 2.91 µM in the assay with MALME-3M melanoma. The TGI in the assay on OVCAR-5 ovarian was 13.6 µM; in the assay on SW-620 colon it was 8.17 µM; with U251 CNS, 9.25 µM; with UACC-62 melanoma, 5.11 µM.
For the compound `CCCCc1ccc(C(N)=O)nc1`, the GI50 was more than 100000 nM in the assay with A549 NSCLC; more than 100 µM with ACHN renal; more than 100000 nM in the assay with HCT-15 colon; more than 100000 nM in the assay on HL-60(TB) leukemia; more than 100000 nM in the assay with IGROV1 ovarian; more than 100000 nM in the assay with MALME-3M melanoma. Also, the GI50 with OVCAR-5 ovarian, with SW-620 colon, in the assay on U251 CNS and with UACC-62 melanoma was more than 100000 nM in each case. In addition, the TGI in the assay on A549 NSCLC, in the assay with ACHN renal, in the assay on HCT-15 colon, in the assay with HL-60(TB) leukemia, in the assay on IGROV1 ovarian and in the assay with MALME-3M melanoma was more than 100 µM each time. The TGI with OVCAR-5 ovarian, with SW-620 colon, with U251 CNS and in the assay on UACC-62 melanoma was more than 100 µM each time.
Consider `CCOc1ccccc1Nc1nc(C)c(C(=O)CC(=O)C(=O)Nc2ccccc2)s1`, for which the TGI in the assay on A549 NSCLC is more than 100 µM; in the assay with ACHN renal, more than 100 µM; in the assay with HCT-15 colon, more than 100 µM; with HL-60(TB) leukemia, 58.1 µM; in the assay with IGROV1 ovarian, more than 100 µM; with MALME-3M melanoma, more than 100 µM. For the same compound, the TGI in the assay with OVCAR-5 ovarian, with SW-620 colon, in the assay on U251 CNS and in the assay on UACC-62 melanoma was more than 100 µM throughout.
On to `COc1cc2c(cc1Nc1nc(Nc3ccsc3C(N)=O)c3cc[nH]c3n1)N(C(=O)CN(C)C)CCC2`, for which the GI50 in the assay with A549 NSCLC is 636 nM; in the assay on ACHN renal it was 2.67 µM; in the assay with HCT-15 colon, 1870 nM; in the assay with HL-60(TB) leukemia it was 5.52 nM; in the assay with IGROV1 ovarian, 1790 nM; with MALME-3M melanoma, 2580 nM. Moreover, the GI50 in the assay with OVCAR-5 ovarian was 109 nM; with SW-620 colon it was 72.6 nM; in the assay with U251 CNS, 1140 nM; with UACC-62 melanoma, 889 nM. The TGI is 3.92 µM with A549 NSCLC; 6.06 µM with ACHN renal; more than 25 µM in the assay on HCT-15 colon; 1.09 µM with HL-60(TB) leukemia; 8.36 µM in the assay with IGROV1 ovarian; 6.24 µM in the assay with MALME-3M melanoma. Also, the total growth inhibition concentration (TGI) is 3.66 µM with OVCAR-5 ovarian, more than 25 µM in the assay on SW-620 colon, 12.8 µM in the assay with U251 CNS and 4.2 µM in the assay on UACC-62 melanoma.
For `COc1c(C)cnc(Cn2cnc3c(Cl)nc(N)nc32)c1C`, the GI50 in the assay with A549 NSCLC is 179 nM; in the assay on ACHN renal it was 0.289 µM; in the assay with HCT-15 colon it was 107 nM; in the assay on HL-60(TB) leukemia, 245 nM; in the assay with IGROV1 ovarian, 455 nM; in the assay on MALME-3M melanoma it was 380 nM. Besides, the GI50 in the assay with OVCAR-5 ovarian is 1130 nM; in the assay with SW-620 colon, 113 nM; with U251 CNS, 415 nM; in the assay with UACC-62 melanoma, 301 nM. In addition, the TGI in the assay with A549 NSCLC is more than 100 µM; in the assay with ACHN renal it was more than 100 µM; in the assay on HCT-15 colon, 26.7 µM; in the assay with IGROV1 ovarian, more than 100 µM; in the assay on MALME-3M melanoma, 58.3 µM; in the assay with OVCAR-5 ovarian it was more than 100 µM. The TGI in the assay on SW-620 colon was more than 100 µM; with U251 CNS, more than 100 µM; in the assay with UACC-62 melanoma, 6.95 µM.
Consider `C#Cc1cccc(NC(=O)Nc2cccc(NC(=O)CCl)c2)c1`, for which the GI50 with A549 NSCLC is more than 82500 nM; in the assay with ACHN renal, 41.5 µM; with HCT-15 colon, 11800 nM; with HL-60(TB) leukemia, 18600 nM; in the assay on IGROV1 ovarian it was 11600 nM; in the assay on MALME-3M melanoma, 20700 nM. Also, the GI50 in the assay on OVCAR-5 ovarian is 21900 nM; with SW-620 colon it was 16900 nM; in the assay on U251 CNS, 16400 nM; in the assay with UACC-62 melanoma it was 33100 nM. The TGI with A549 NSCLC is more than 82.5 µM; in the assay with ACHN renal, more than 82.5 µM; with HCT-15 colon, 26.7 µM; in the assay on HL-60(TB) leukemia it was 73.9 µM; with IGROV1 ovarian, 26 µM; in the assay on MALME-3M melanoma, more than 82.5 µM. The TGI is 63.9 µM in the assay with OVCAR-5 ovarian, 37.3 µM in the assay with SW-620 colon, 39.3 µM in the assay with U251 CNS and more than 82.5 µM in the assay with UACC-62 melanoma.
As to `CC(=O)/C=C\C(=O)NNS(=O)(=O)c1ccc(C)cc1`, the TGI in the assay on A549 NSCLC, with ACHN renal, in the assay with HCT-15 colon, in the assay on HL-60(TB) leukemia, with IGROV1 ovarian and in the assay on MALME-3M melanoma was more than 100 µM in each case. The TGI in the assay on OVCAR-5 ovarian, in the assay on SW-620 colon, with U251 CNS and with UACC-62 melanoma was more than 100 µM throughout.
With `Cc1nn(C(=O)CC(=O)Nc2ccccc2Cl)c(C)c1N=Nc1ccccc1Cl`, the TGI in the assay on A549 NSCLC, in the assay with ACHN renal, in the assay with HCT-15 colon, in the assay with HL-60(TB) leukemia, in the assay with IGROV1 ovarian and in the assay with MALME-3M melanoma was more than 100 µM in each case. Besides, the TGI in the assay on OVCAR-5 ovarian, in the assay with SW-620 colon, in the assay on U251 CNS and in the assay on UACC-62 melanoma was more than 100 µM in each case.
As to `Oc1c(Br)cc(Br)c2cccnc12`, the GI50 in the assay with A549 NSCLC is 3620 nM; in the assay with ACHN renal, 3.48 µM; in the assay with HCT-15 colon, 4840 nM; with HL-60(TB) leukemia it was 2280 nM; in the assay on IGROV1 ovarian it was 4180 nM; in the assay on MALME-3M melanoma it was 3210 nM. For the same compound, the GI50 in the assay on OVCAR-5 ovarian is 6210 nM; in the assay with SW-620 colon it was 4580 nM; with U251 CNS it was 3340 nM; in the assay with UACC-62 melanoma, 2160 nM. For the same compound, the TGI in the assay on A549 NSCLC is 54.6 µM; in the assay with ACHN renal, 18.6 µM; in the assay on HCT-15 colon it was 31.1 µM; in the assay on HL-60(TB) leukemia, 5.13 µM; in the assay with IGROV1 ovarian, 51.4 µM; in the assay on MALME-3M melanoma, 19 µM. The TGI in the assay on OVCAR-5 ovarian is 49.5 µM; with SW-620 colon it was 72.8 µM; in the assay on U251 CNS, 18.8 µM; in the assay with UACC-62 melanoma, 7.37 µM.
